Laboratory results: US20180153995A1, “USE OF ANTIMICROBIAL POLYMERS FOR RE-SENSITIZATION OF MICROORGANISMS UPON EMERGENCE OF RESISTANCE TO ANTI-MICROBIAL AGENTS” (Technion Research & Development Foundation Limited, priority 2008, published 2018)
Values joined by “and” are separate entries in the source; they are usually repeats but may differ in a detail not shown here. Equal values may be shown once. Read-outs that look alike come from different tables or passages of the source.

Legend:
MRSA 15852 = type: cell-based, Staphylococcus aureus; conditions: S. aureus 15852
Method in brief: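 Checkerboard combination testing against MRSA 15852; FIC index = A/MICA + B/MICB, with A and B the MICs of each agent in combination and MICA, MICB the MICs alone. Index <0.5 read as clear re-sensitizing, 0.5–4 as marginal or null, >4 as antagonism.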

ATCC 29213 = experiment: microbe, parasite or virus in culture; type: cell-based, Staphylococcus aureus; conditions: Staphylococcus aureus, ATCC29213; read-out: MIC
Protocol: (§1) MICs were determined by microdilution susceptibility testing in 96-well plates (by Nunc) using inocula of 10^5 bacteria per ml. Cell populations were evaluated by optical density measurements at 620 nm and were calibrated against a set of standards. Hundred (100) μl of a bacterial suspension were added to 100 μl of culture medium (control) or to 100 μl of culture medium containing various polymer concentrations in 2-fold serial dilutions. Inhibition of proliferation was determined by optical density measurements at 620 nm after an incubation period of 24 hours at 37° C.
(§2) The fractionary inhibitory (FIC) concentration index for combinations of two antimicrobial agents was calculated as follows: FIC index=FICA+FICB=A/MICA+B/MICB where A and B are the MIC values of agent A and agent B in the combination, MICA and MICB are the MICs of agent A and agent B alone, and FICA and FICB are the FICs of agent A and agent B.
(§3) The FIC indexes were interpreted as follows: less than 0.5 indicates a clear re-sensitizing effect; from 0.5 to 4 indicates a marginal or null re-sensitizing effect; and over 4 indicates antagonism.

MRSA 15918 = experiment: microbe, parasite or virus in culture; type: cell-based, Staphylococcus aureus; conditions: Staphylococcus aureus, MRSA; read-out: MIC
Protocol: as §1, §2, §3

S. aureus 15877 = experiment: Antibiotic MIC by microdilution with or without sub-MIC polymer; type: cell-based, Staphylococcus aureus
E. coli 14384 = experiment: as above; type: cell-based, Escherichia coli
Protocol: as §1
100 μl of a bacterial suspension were added to 100 μl of culture medium (control) or to 100 μl of culture medium containing various antibiotic and C14(9-ene)KKNC12KNH2 (SEQ ID NO: 5) concentrations in 2-fold serial dilutions. Inhibition of proliferation was determined by optical density measurements at 620 nm after an incubation period of 24 hours at 37° C.

P. aeruginosa 8732 = experiment: as above; type: cell-based, Pseudomonas aeruginosa
Protocol: as §1
Inhibition of proliferation was determined by optical density measurements at 620 nm after an incubation period of 24 hours at 37° C.

E. coli CI14213 = type: cell-based, Escherichia coli
Method in brief: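 Bacteria (10^5 per ml) are mixed into culture medium holding serially 2-fold diluted polymer, or into plain medium as control. Plates incubate 24 hours at 37 °C. Optical density at 620 nm then gives the inhibition of proliferation, from which MICs are taken.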

E. coli AG100 = experiment: Antibiotic MIC with or without sub-MIC polymer (Tables 20, 21); type: cell-based, Escherichia coli
E. coli AG100/ks = experiment: as above; type: cell-based, Escherichia coli
S. aureus ATCC 29213 = experiment: microbe, parasite or virus in culture; conditions: Staphylococcus aureus, ATCC29213, read-out: Oxacillin's MIC
Protocol: In parallel, MIC evolution was compared concomitantly for each new sub-culture, using bacteria harvested from control wells (wells cultured without antimicrobial agent from the previous sub-culture). The relative MIC was calculated for each experiment from the ratio of MIC obtained for subculture “n” to that obtained for first-time exposure.
The relative MIC was determined as the normalized ratio of the MIC obtained for a given subculture to the MIC of the control.
MICs were determined by microdilution susceptibility testing in 96-well plates using inocula of 10^5 bacteria per ml. Cell populations were evaluated by optical density measurements at 600 nm and were calibrated against a set of standards.
In parallel, MIC evolution was compared concomitantly for each new generation, using bacteria harvested from control wells (wells cultured without antimicrobial agent from the previous generation). The relative MIC was calculated for each experiment from the ratio of MIC obtained for subculture “n” to that obtained for first-time exposure. […] MICs were determined by microdilution susceptibility testing in 96-well plates. Cell populations were evaluated by optical density measurements at 600 nm and were calibrated against a set of standards.

S. aureus 43300 = experiment: Antibiotic MIC by microdilution with or without sub-MIC polymer; type: cell-based, Staphylococcus aureus
[1] = +⅓ MIC (2.1 μM) C12(5-ene)KKNC12KNH2

Compound: Cc1onc(-c2ccccc2)c1C(=O)N[C@@H]1C(=O)N2[C@@H]1SC(C)(C)[C@@H]2C(=O)O [Oxacillin, oxacillin]
- Antibiotic MIC (MRSA 15852; +¼ MIC (1.6 μM) C12KKNC12KNH2): 256 µg/mL
- Antibiotic MIC (MRSA 15852; +½ MIC (3.12 μM) C12KKNC12KNH2): 256 µg/mL
- Antibiotic MIC (MRSA 15852; +⅓ MIC (2.1 μM) C12KKNC12KNH2): 256 µg/mL
- Antibiotic MIC (MRSA 15852; no polymer (None), Table 11): 256 µg/mL
- MIC (ATCC 29213): 0.09 µg/mL
- MIC (MRSA 15918): 64 µg/mL
- Antibiotic MIC (S. aureus 15877; +½ MIC (3.12 μM) C12(5-ene)KKNC12KNH2): 16 µg/mL
- Antibiotic MIC (S. aureus 15877; [1]): 32 µg/mL
- Antibiotic MIC (E. coli 14384): 256 µg/mL and >512 µg/mL
- Antibiotic MIC (E. coli 14384; E. coli 14384, +½ MIC C12K(NC8K)5NH2): 256 to 512 µg/mL
- Antibiotic MIC, None (E. coli 14384; E. coli 14384, antibiotic alone (Table 15)): >512 µg/mL
- Antibiotic MIC (E. coli 14384; E. coli 14384, no polymer (None), Table 9): >512 µg/mL
- Antibiotic MIC (E. coli 14384; E. coli 14384, no polymer (None), Table 14): >512 µg/mL
- Antibiotic MIC in presence of C12K(NC8K)7NH2 (SEQ ID NO: 4), +¼ MIC (E. coli 14384; E. coli 14384, polymer at ¼ of its MIC): >512 µg/mL
- Antibiotic MIC in presence of C12K(NC8K)7NH2 (SEQ ID NO: 4), +½ MIC (E. coli 14384; E. coli 14384, polymer at ½ of its MIC): >512 µg/mL
- Antibiotic MIC in presence of C12K(NC8K)7NH2 (SEQ ID NO: 4), +⅓ MIC (E. coli 14384; E. coli 14384, polymer at ⅓ of its MIC): >512 µg/mL
- Antibiotic MIC (P. aeruginosa 8732): >512 µg/mL
- Antibiotic MIC (P. aeruginosa 8732; P. aeruginosa 8732, +½ MIC (3.12 μM) C16(9-ene)KKNC12KNH2): >512 µg/mL
- Antibiotic MIC (P. aeruginosa 8732; P. aeruginosa 8732, +⅓ MIC (2.1 μM) C16(9-ene)KKNC12KNH2): >512 µg/mL
- Antibiotic MIC (P. aeruginosa 8732; P. aeruginosa 8732, no polymer (None), Table 10): >512 µg/mL
- activity of oxacillin alone (E. coli CI14213; E. coli CI14213, 24 hours incubation): inactive
- concentration up to which E. coli is insensitive to oxacillin (E. coli CI14213; E. coli, oxacillin alone): > 512 µg/mL
- Antibiotic MIC, None (E. coli AG100; antibiotic alone (Table 20)): 512 µg/mL
- Antibiotic MIC, None (E. coli AG100; antibiotic alone (Table 21)): 512 µg/mL
- Antibiotic MIC in presence of C12K(NC8K)5NH2 (SEQ ID NO: 3), +¼ MIC (E. coli AG100; polymer at ¼ of its MIC): 256 µg/mL
- Antibiotic MIC in presence of C12K(NC8K)5NH2 (SEQ ID NO: 3), +½ MIC (E. coli AG100; polymer at ½ of its MIC): 32 to 64 µg/mL
- Antibiotic MIC in presence of C12K(NC8K)7NH2 (SEQ ID NO: 4), +½ MIC (E. coli AG100; polymer at ½ of its MIC): 32 to 64 µg/mL
- Antibiotic MIC, None (E. coli AG100/ks; antibiotic alone (Table 20)): >512 µg/mL
- Antibiotic MIC, None (E. coli AG100/ks; antibiotic alone (Table 21)): >512 µg/mL
- Antibiotic MIC in presence of C12K(NC8K)5NH2 (SEQ ID NO: 3), +¼ MIC (E. coli AG100/ks; polymer at ¼ of its MIC): >512 µg/mL
- Antibiotic MIC in presence of C12K(NC8K)7NH2 (SEQ ID NO: 4), +¼ MIC (E. coli AG100/ks; polymer at ¼ of its MIC): >512 µg/mL
- Antibiotic MIC in presence of C12K(NC8K)5NH2 (SEQ ID NO: 3), +½ MIC (E. coli AG100/ks; polymer at ½ of its MIC): >512 µg/mL
- Antibiotic MIC in presence of C12K(NC8K)7NH2 (SEQ ID NO: 4), +½ MIC (E. coli AG100/ks; polymer at ½ of its MIC): >512 µg/mL
- Antibiotic MIC in presence of C12K(NC8K)5NH2 (SEQ ID NO: 3), +⅓ MIC (E. coli AG100/ks; polymer at ⅓ of its MIC): >512 µg/mL
- Antibiotic MIC in presence of C12K(NC8K)7NH2 (SEQ ID NO: 4), +⅓ MIC (E. coli AG100/ks; polymer at ⅓ of its MIC): >512 µg/mL
- MIC (S. aureus ATCC 29213): 0.28 µM and 0.125 µg/mL
- Antibiotic MIC (S. aureus 43300; +¼ MIC (1.6 μM) C12(5-ene)KKNC12KNH2): 0.125 µg/mL
- Antibiotic MIC (S. aureus 43300; +¼ MIC (1.6 μM) C12KKNC12KNH2): 0.5 µg/mL
- Antibiotic MIC (S. aureus 43300; +¼ MIC (1.6 μM) C16(9-ene)KKNC12KNH2): 0.25 to 0.5 µg/mL
- Antibiotic MIC (S. aureus 43300; +½ MIC (3.12 μM) C12K(KNC12K)2NH2): 0.25 µg/mL
- Antibiotic MIC (S. aureus 43300; +½ MIC (3.12 μM) C12KKNC12KNH2): 0.25 µg/mL
- Antibiotic MIC (S. aureus 43300; +½ MIC (3.12 μM) C16(9-ene)KKNC12KNH2): 0.03 to 0.06 µg/mL
- Antibiotic MIC (S. aureus 43300; [1]): 0.125 µg/mL
- Antibiotic MIC (S. aureus 43300; +⅓ MIC (2.1 μM) C12K(KNC12K)2NH2): 0.25 µg/mL
